Data taken from patent publication US4596820A, “1,7-diphenyl-3-methylaza-7-cyano-8-methylnonane for use in the treatment of diseases” (priority 1983, dated 1986).

What was measured:
[1] = tested on: hypoxic reduction in the level of creatine phosphate, adenosine triphosphate and glycogen in the heart muscle; assay: animal or person; type: in vivo, rat (male Wistar); details: for Relative activity: relative to (±) A = 1; for ED 50% (pretreatment dose which increases the ATP level by 50% compared with the hypoxic control group): 360 min
Description: Male Wistar rats weighing 250-300 g were anesthetized intraperitoneally with thiobutabarbital (100 mg/kg of body weight) and then subjected to standardized ventilation with an oxygen-deficient mixture (2% of O2 and 98% of N2) for 7 minutes. Using the freeze-stop technique, the apex of the heart was removed, mechanically comminuted and then digested with the addition of 0.6N perchloric acid. After centrifuging, creatine phosphate (according to Bergmeyer, H. U., Methoden der enzymatischen Analyse, Verlag Chemie, Weinheim, 2, (1974), 1825), adenosine triphosphate (according to Biochem. Biophys. Acta (Amst.) 1 (1947), 292) and glycogen (according to Biochem. J. 56 (1954), 1825) were determined in the supernatant liquid.
The test substances were administered to the conscious animals at various times before they were anesthetized and before the subsequent ventilation with an oxygen-deficient mixture. The percentage difference in the myocardial concentrations of adenosine triphosphate (ATP), creatine phosphate (CP) and glycogen in animals pretreated with the test substance compared with untreated hypoxic control animals was determined.
The ED 50% is the pretreatment dose of test substance which
increases the ATP level by 50% compared with the hypoxic

cerebral hypoxia = assay: Tolerance of the mouse to hypoxia (survival of oxygen-deficient ventilation); type: in vivo, mouse (female NMRI Ivanovas); details: for Effect on number of animals surviving hypoxia after 3 minutes: 96.5% N2 and 3.5% O2, dose-dependent for A and its antipodes; for ED 50% (dose at which 50% of the animals survived oxygen-deficient ventilation for 3 minutes): 60 min
Description: To test for tolerance to hypoxia, female mice (NMRI Ivanovas, weight 24-26 g) were introduced individually into glass tubes through which a gas mixture consisting of 96.5% of N2 and 3.5% of O2 flowed via a rotameter, at a rate of 4 liters/min. The time from the beginning of passage of the gas mixture until death occurred was measured.
Tolerance of the mouse to hypoxia, test carried out 1 hour
after oral administration of the test substances.
ED 50% means that, at the stated dose, 50% of the animals
survived oxygen-deficient ventilation for 3 minutes.

[2] = tested on: heart and the circulation; details: similar doses; cited from earlier work
[3] = tested on: PQ interval and myocardial contractility; assay: PQ interval and myocardial contractility in anesthetized pigs; type: in vivo, pig; details: 0.2 mg/kg intravenously
AV conduction = assay: Effect on AV conduction in the dog; type: in vivo
Description: The effect on the AV conduction was tested on a species suitable for this purpose, ie. the dog.

[4] = in vivo
[5] = tested on: blood pressure and heart rate; assay: Blood pressure and heart rate of conscious spontaneously hypertensive rats; type: in vivo; details: 20 mg/kg oral
[6] = Overall findings (oral availability, duration of action, toleration); details: in vivo
[7] = 20 mg/kg oral, 6 hours after administration (Table 3, comparison with verapamil)
[8] = 40 mg/kg oral, 6 hours after administration
[9] = 80 mg/kg oral, 6 hours after administration
[10] = 5 mg/kg oral, 6 hours after administration, vs untreated hypoxic controls
[11] = 10 mg/kg oral, 6 hours after administration, vs untreated hypoxic controls
[12] = 20 mg/kg oral, 2 hours after administration
[13] = 20 mg/kg oral, 6 hours after administration (Table 2)
[14] = 20 mg/kg oral, 6 hours after administration, vs untreated hypoxic controls (Table 1)
[15] = 20 mg/kg oral, 12 hours after administration
[16] = 20 mg/kg oral, 18 hours after administration
[17] = 20 mg/kg oral, 24 hours after administration
[18] = rat, 6 hours after oral administration
[19] = mouse, 1 hour after oral administration

COc1ccc(CCN(C)CCCC(C#N)(c2ccc(OC)c(OC)c2)C(C)C)cc1OC (centres unmarked) [verapamil, reference compound]
Percentage difference in the amount of ATP [1, 7]: 0%
Percentage difference in the amount of CP [1, 7]: -9%
Percentage difference in the amount of Glycogen [1, 7]: 9%
Percentage difference in the amount of ATP [1, 8]: 9%
Percentage difference in the amount of CP [1, 8]: 9%
Percentage difference in the amount of Glycogen [1, 8]: -5%
Percentage difference in the amount of ATP [1, 9]: 20%
Percentage difference in the amount of CP [1, 9]: 21%
Percentage difference in the amount of Glycogen [1, 9]: 2%
Protective action against the hypoxia-induced reduction in myocardial CP, ATP and glycogen ([1]; same dose as A or up to 4 times higher, 6 hours after oral administration): no significant protective action
Effect on number of animals surviving hypoxia after 3 minutes (cerebral hypoxia): ineffective
Survival of pretreated animals (cerebral hypoxia; after 3 minutes of hypoxia): dead after 3 minutes
Known effects on the heart and the circulation [2]: reduction in blood pressure and inhibition of AV conduction
Myocardial contractility (maximum systolic rate of increase in pressure in the left ventricle) [3]: reduction in the myocardial contractility
PQ interval [3]: pronounced increase in the PQ interval
AV block (AV conduction; 0.4 mg/kg intravenously): causes second degree AV blocks in all experimental animals
PQ interval (AV conduction; 0.4 mg/kg intravenously): greatly prolongs the PQ interval

CC(C)C(C#N)(CCCN(C)CCc1ccccc1)c1ccccc1 (racemic) [A, 1,7-diphenyl-3-methylaza-7-cyano-8-methylnonane]
Inhibition of the hypoxic reduction in CP, ATP and glycogen in the heart muscle ([1]; 5 mg/kg oral (lowest dose tested)): substantially inhibits the hypoxic reduction in the level of creatine phosphate, adenosine triphosphate and glycogen in the heart muscle
Percentage difference in the amount of ATP [1, 10]: 24%
Percentage difference in the amount of CP [1, 10]: 29%
Percentage difference in the amount of Glycogen [1, 10]: 10%
Percentage difference in the amount of ATP [1, 11]: 37%
Percentage difference in the amount of CP [1, 11]: 47%
Percentage difference in the amount of Glycogen [1, 11]: 27%
Percentage difference in the amount of ATP [1, 12]: 31%
Percentage difference in the amount of CP [1, 12]: 41%
Percentage difference in the amount of Glycogen [1, 12]: -1%
Percentage difference in the amount of ATP [1, 13]: 63%
Percentage difference in the amount of CP [1, 13]: 80%
Percentage difference in the amount of Glycogen [1, 13]: 50%
Percentage difference in the amount of ATP [1, 7]: 63%
Percentage difference in the amount of CP [1, 7]: 80%
Percentage difference in the amount of Glycogen [1, 7]: 50%
Percentage difference in the amount of ATP [1, 14]: 63%
Percentage difference in the amount of CP [1, 14]: 80%
Percentage difference in the amount of Glycogen [1, 14]: 50%
Percentage difference in the amount of ATP [1, 15]: 42%
Percentage difference in the amount of CP [1, 15]: 42%
Percentage difference in the amount of Glycogen [1, 15]: 19%
Percentage difference in the amount of ATP [1, 16]: 40%
Percentage difference in the amount of CP [1, 16]: 32%
Percentage difference in the amount of Glycogen [1, 16]: 16%
Percentage difference in the amount of ATP [1, 17]: 11%
Percentage difference in the amount of CP [1, 17]: 22%
Percentage difference in the amount of Glycogen [1, 17]: 26%
Cardioprotective effect at the dose ([1]; 20 mg/kg oral, rat): maximum cardioprotective effect
Onset of protective effect ([1]; 20 mg/kg oral, CP and ATP): clearly detectable for the parameters CP and ATP as soon as 2 hours after administration
Duration of protective effect ([1]; 20 mg/kg, CP and ATP): up to 24 hours
Cardioprotective action compared with verapamil ([1]; 6 hours after oral administration): substantially superior to that of verapamil
ED50 ([1]; Rattus norvegicus, po, 6 h, rat, 6 hours after oral administration, read-out: ED 50% (pretreatment dose which increases the ATP level by 50% compared with the hypoxic control group)): 13.6 mg/kg
Dose dependence of protective effect ([1]; oral, rat): An increase in dose results in a greater protective effect
Relative activity [1, 18]: 1
Toleration of the dose ([1]; rat, in vivo): well tolerated
Effect on number of animals surviving hypoxia after 3 minutes (cerebral hypoxia): increase the number of experimental animals which survive after 3 minutes
ED50 (cerebral hypoxia; Mus musculus, po, 1 h, mouse, 1 hour after oral administration, read-out: ED 50% (dose at which 50% of the animals survived oxygen-deficient ventilation for 3 minutes)): 88 mg/kg
Protective action against cerebral hypoxia compared with verapamil (cerebral hypoxia; mouse): superior protective action, compared with verapamil
Reduction in the blood pressure [4]: does not result in a reduction in the blood pressure
Toleration [4]: particularly well tolerated
Risk of provoking conduction disturbances compared with verapamil (AV conduction; in vivo): substantially lower in the case of A than for verapamil
Therapeutic index compared with verapamil (AV conduction; in vivo): substantially greater therapeutic index than verapamil
Effect on AV conduction (AV conduction; in vivo, iv, 0.4 mg/kg): no adverse effect at all on the AV conduction
Blood pressure, Change in % ([5]; 6 hours after administration): -5%
Heart rate, Change in % ([5]; 6 hours after administration): -5%
Blood pressure, 6 hours after administration of the substance ([5]; initial value 229): 217
Heart rate, 6 hours after administration of the substance ([5]; initial value 398): 378
Duration of action [6]: long duration of action
Oral availability ([6]; po): great oral availability

CC(C)C(C#N)(CCCN(C)CCc1ccccc1)c1ccccc1 (single isomer, unassigned; (-)) [(-) A, (-)-1,7-Diphenyl-3-methylaza-7-cyano-8-methylnonane]
Effective dose compared with that of the antipode [1, 18]: substantially lower than that of the dextrorotatory antipode
Efficacy relative to the racemate [1, 18]: about twice as effective as the racemate
ED 50% (pretreatment dose which increases the ATP level by 50% compared with the hypoxic control group) [1, 18]: 6.6 mg/kg
Relative activity [1, 18]: 2.06
Effect on number of animals surviving hypoxia after 3 minutes (cerebral hypoxia): increase the number of experimental animals which survive after 3 minutes
ED 50% (dose at which 50% of the animals survived oxygen-deficient ventilation for 3 minutes) (cerebral hypoxia; [19]): 48 mg/kg

CC(C)C(C#N)(CCCN(C)CCc1ccccc1)c1ccccc1 (single isomer, unassigned; (+)) [(+) A, (+)-1,7-Diphenyl-3-methylaza-7-cyano-8-methylnonane]
Efficacy relative to the racemate [1, 18]: about one fourth of the efficacy of the racemate
ED 50% (pretreatment dose which increases the ATP level by 50% compared with the hypoxic control group) [1, 18]: 50.3 mg/kg
Relative activity [1, 18]: 0.27
ED 50% (dose at which 50% of the animals survived oxygen-deficient ventilation for 3 minutes) (cerebral hypoxia; [19]): 100 mg/kg
